This is an account of results in US20250352529A1, “COMBINED USE OF M1 MUSCARINIC RECEPTOR AGONISTS AND M3 MUSCARINIC RECEPTOR ANTAGONISTS TO TREAT CANCER” (The United States Government As Represented By The …, priority 2024, published 2025).

Where two headings read alike, the source gives them in different places.

Data set [1] has as its system H508 human CRC cells. As to the kind of experiment: WST-1 cell proliferation assay, H508 cells. It counts as cell-based. The following applies: for change in cell proliferation: trospium 5-50 μM; for effect of antagonist preincubation on xanomeline dose-response curve (proliferation): trospium 50 μM, darifenacin 30 and 60 μM; for IC50: Homo sapiens, read-out: half-maximal inhibitory concentration (IC50), cell proliferation. The protocol: (§1) FIG. 6A) Treating H508 cells for 5 days with carbachol (carb), a non-selective muscarinic receptor agonist stimulates cell proliferation measured using the WST-1 Cell Proliferation Assay (Roche). Cont, control; Carb, carbachol. Solid black circles represent values for individual replicates. […] Cells were incubated with or without agents for 5 days. N=4. FIG. 6D). Maximal proliferation responses observed with increasing concentrations of McN-A-343 in H508 (square), HT-29 (triangle), and HCT116 (circle) human CRC cells. Cells were incubated with agents for 5 days. Dose-response curves created by nonlinear regression (GraphPad Prism).
(§2) Human colon cancer cell lines (H508, HCT116) were grown in complete culture medium in a 37° C. incubator with 5% CO2 and sub-cultured weekly. H508 or HCT116 cells were seeded in 96-well plates, allowed to adhere for 24 h and changed to serum-free culture medium. Cells were treated for 5 days with Xanomeline, a selective M1R agonist, and were pre-incubated for 30 min with Darifenacin, a selective M3R antagonist or Trospium, a non-selective MR antagonist. Cell proliferation and cytotoxicity were measured using the WST-1 and LDH colorimetric assays, respectively. Absorbance was measured at 440 nm and 490/680 nm, respectively, using a computer-interfaced plate reader.
(Tetrazolium dyes change colour on reduction, which living cells bring about.)

Data set [2] concerns HT-29 human CRC cells. In words: WST-1 cell proliferation assay, HT-29 cells. It counts as cell-based. The following applies: HT-29 cells (CHRM1:3-low), 5 days; read-out: half-maximal effective concentration (EC50) for inhibition of CRC cell proliferation. The protocol:
as §1

For data set [3], the system named is HCT116 human CRC cells. In words: WST-1 cell proliferation assay, HCT116 cells. It counts as cell-based. On the procedure:
as §1, §2

The test system of data set [4] is H508 CRC cells. In words: LDH release cytotoxicity assay. It counts as cell-based, human. The following applies: increasing doses of xanomeline +/− 30 or 60 μM darifenacin. The protocol: FIG. 7A-B show combining a selective M3R inhibitor (darifenacin) with an M1R-selective activator potentiates inhibition of cell proliferation without cell injury. […] Triton X-100 was the positive control for LDH release. Symbols represent means+/−SEM of 3-9 replicates.
To exclude cell toxicity with these drug concentration, cellular release of lactate dehydrogenase (LDH) was measured.
as §2
In general terms: Release of lactate dehydrogenase indicates damage to the cell membrane.

The mark [5] stands for this setting: H508 cells, 5 days, agent alone.
Setting [6] is: NCI-H508, 120 h, H508 cells, agent alone, 5 days.

With `C[N+](C)(C)CC#CCOC(=O)Nc1cccc(Cl)c1.[Cl-]` [McN-A-343], the EC50 was determined as 137 µM in data set [1] (H508 cells (CHRM1:3-low), 5 days, read-out: half-maximal effective concentration (EC50) for inhibition of CRC cell proliferation); 548 µM in data set [2]; 7.89 µM in data set [3] (HCT116 cells (CHRM1:3-high), 5 days, read-out: half-maximal effective concentration (EC50) for inhibition of CRC cell proliferation). Moreover, the “change in cell proliferation” value in data set [1] (setting [5]) was “robustly and dose-dependently attenuated cell proliferation”.
With `C[N+](C)(C)CCOC(N)=O` [carbachol, Carbachol], in data set [1] (setting [5]), the “change in cell proliferation” value is listed as “two-fold increase in cell proliferation”.
On to `NC(=O)C(c1ccccc1)(c1ccccc1)[C@@H]1CCN(CCc2ccc3c(c2)CCO3)C1` [darifenacin, Darifenacin], for which the “effect of antagonist preincubation on xanomeline dose-response curve (proliferation)” value in data set [1] (H508 cells) is listed as “shifted the xanomeline dose-response curve progressively leftward”. Also, the IC50 in data set [1] (setting [6]) worked out at 84 µM.
In the case of `O=C(O[C@H]1C[C@H]2CC[C@@H](C1)[N+]21CCCC1)C(O)(c1ccccc1)c1ccccc1` [trospium, Trospium], in data set [1] (setting [5]), the “change in cell proliferation” value is “did not alter cell proliferation”. Further, the “effect of antagonist preincubation on xanomeline dose-response curve (proliferation)” value in data set [1] (H508 cells) was “did not shift”.
Turning to `CCCCCCOc1nsnc1C1=CCCN(C)C1` [xanomeline, Xanomeline], in data set [1] (setting [5]), the “change in cell proliferation” value is “robustly and dose-dependently attenuated cell proliferation”. Further, the IC50 in data set [1] (setting [6]) came to 32.8 µM; in data set [1] (NCI-H508, H508 cells, xanomeline plus 30 μM darifenacin) it was 21.6 µM; in data set [1] (NCI-H508, H508 cells, xanomeline plus 60 μM darifenacin), 18.7 µM. Further, in data set [4], the “cell LDH leakage” value is “No cell LDH leakage was detected”. Besides, in data set [3] (HCT116 cells, increasing xanomeline concentrations), the “inhibition of cell proliferation compared to H508 cells” value is listed as “attenuated at lower xanomeline concentrations”.
